Laboratory results taken from patent US5547684A, “Cosmetic composition containing a DNA-sodium salt and methods of making and using the same” (priority 1993, dated 1996).

Key:
[1] = tested on: HIV (HIV-IVS and HIV-1 HTLV/IIIB strains); assay: HIV suppression in vitro (syncitia, viral antigen IFA), CEM-SS and MT-4 cells; assay type: cell-based; settings: Table 1; comparison preparation, no ratio
Experimental: Complexes of DNA-Na with zinc, cobalt, nickel and iron were used for HIV suppression in in vitro systems with various concentrations of the components in the complexes. AZT manufactured by "Wellcome" Company was used for comparison purposes. The antiviral activity of the preparation was tested according to the method recommended by WHPO for these purposes. CEM-SS and MT-4 reinoculated human cell lines were used. The cells were cultivated in the concentration of (0.03-0.05)*10^6 cells per 1 ml of RPMI 1640 medium with 10% calf fetal serum, […] of L-glutamine, 100 mcg/ml of gentamicin and grown in the form of a suspension. The vitality of cells was tested by dyeing them with 0.4% solution of threpane blue dye stuff. HIV-IVS and HIV-1 HTLV/IIIB strains were used as the virus sources.
The cell suspension was placed into 24 well panels, processed by various doses of preparations and then infected by HIV. The infection multiplicity was 0.01 TCD50 per cell. After that, the cultures were incubated at 37° C. in a 5% CO2 atmosphere and 98% humidity for 5-7 days up to the moment of defining the cytopathic effect of the virus upon the cell culture.
Immunophermentative analysis was used to define formation of viral antigen.

CEM-SS and MT-4 cells = assay: Cytotoxicity of preparations, threpane blue vitality of cells; assay type: cell-based, human; settings: Table 1; comparison preparation, no ratio
Experimental: The antiviral activity of the preparation was tested according to the method recommended by WHPO for these purposes. CEM-SS and MT-4 reinoculated human cell lines were used. The cells were cultivated in the concentration of (0.03-0.05)*10^6 cells per 1 ml of RPMI 1640 medium with 10% calf fetal serum, 300 mg/ml of L-glutamine, 100 mcg/ml of gentamicin and grown in the form of a suspension. The vitality of cells was tested by dyeing them with 0.4% solution of threpane blue dye stuff. HIV-IVS and HIV-1 HTLV/IIIB strains were used as the virus sources.

HIV-1 (HTLV-IIIB) = assay: Anti-virus activity of AC-series preparations on infected cells (syncitia, p24 antigen); assay type: cell-based
Experimental: Antiviral activity of these preparations toward HIV-1 was studied using as the model, cellular cultures infected with HIV-1.
The testing of anti-virus activity was conducted using two types of interwoven cellar lines sensitive to infecting by AIDS-virus--the MT-4 cells and Yurkat tat III cells. The cells were harvested in suspension form in a PPMI 1640 medium containing 15% of fetal serum with exposure to the atmosphere characterized by 5% CO2 content, 98% humidity level and 37% C. temperature level. The cells were infected by the HTLV-IIIB culture of AIDS-1 virus in accordance with WHO recommendations for conducting scientific researches on testing pharmaceutical preparations. The methods used for determining anti-virus activity of the tested preparations are recommended for similar purposes by the WHO Reference Laboratory (Belgium) headed by Professor de Clerk who is an internationally recognized leading expert in synthesis and screening chemical preparations for AIDs treatment (I. Antimicrob. Chemoter., 1989, No. 23, Suppl. A 35-46). […]
(§1) The cells were incubated for 6 days under similar conditions and thereafter their viability was determined as well as formation of virus-induced syncytia and virus antigen (p24) using immunofermental analysis. […] The viable cells were counted using thripane blue dye-stuff in the Goryayev chamber.

[2] = tested on: MT-4 cells and Yurkat tat III cells; assay: Cell viability / toxic effect on cells, AC-series preparations; assay type: cell-based, human
Experimental: The testing of anti-virus activity was conducted using two types of interwoven cellar lines sensitive to infecting by AIDS-virus--the MT-4 cells and Yurkat tat III cells. The cells were harvested in suspension form in a PPMI 1640 medium containing 15% of fetal serum with exposure to the atmosphere characterized by 5% CO2 content, 98% humidity level and 37% C. temperature level. The cells were infected by the HTLV-IIIB culture of AIDS-1 virus in accordance with WHO recommendations for conducting scientific researches on testing pharmaceutical preparations. The methods used for determining anti-virus activity of the tested preparations are recommended for similar purposes by the WHO Reference Laboratory (Belgium) headed by Professor de Clerk who is an internationally recognized leading expert in synthesis and screening chemical preparations for AIDs treatment (I. Antimicrob. Chemoter., 1989, No. 23, Suppl. A 35-46). The work was done at the Virology Institute of the U.S.S.R. Academy of Medical Sciences on MT-4 human lymphoid cells and on Yurkat tat III cells as indicated above.
as §1

in vivo = settings: mouse, in vivo
Experimental: (§2) The studies on toxicity of AC-1 and AC-4 and of aziodothymidine were conducted on non-linear white mice weighing 6 to 7 grams, making use of different concentrations of preparations per kg of weight of the animal in the volume of 0.2 ml in hypodermic, intranasal and intraabdominal injections and 0.03 ml in intracerebral injections. The animals were kept under observation for 2 weeks and then LD50 was calculated using Curber method. The lethal dose of the preparation which has caused death of 50% of the animals was considered an LD50 dose. The preparation was used as a sterile solution was a concentration of 0.05%.
(§3) The animals were kept under observation for 2 weeks and then LD50 was calculated using Curber method. The lethal dose of the preparation which caused death of 50% of the animal was considered the LD50 dose.

white mice = assay: in vivo; settings: for surviving mice / infected mice: Table 3
Experimental: as §2, §3

normal cells = settings: cited from earlier work
mice = settings: 10 mg/kg injected intercerebrally; cited from earlier work

Cc1cn([C@H]2C[C@H](N=[N+]=[N-])[C@@H](CO)O2)c(=O)[nH]c1=O [AZT, azidothymidine]
IFA optical density [1]: 0.091
IFA viral antigen [1]: 0.1 ng/mL
quantity of syncitia, % from the control virus [1]: 8%
cytotoxicity: quantity of cells in ml of cultural liquid (CEM-SS and MT-4 cells): 0.61 × 10^8
antigen (p24) content (HIV-1 (HTLV-IIIB); 1.0 mcm/ml, virus control 2.0 ng/ml): 1 ng/mL
immunofermental activity (HIV-1 (HTLV-IIIB); Table 2, virus antigen (p24), 270 mkg/ml, 6th day): 0.1 ng/mL
viability at 270 µg/mL ([2]; Homo sapiens, MT4, 144 h): 96%
toxicity on the cell level ([2]; all the above biologically active concentrations): nontoxic
LD50 at 336 h (in vivo): 10 mg/kg
mortality at 336 h (in vivo; 10 mg/kg): 50%
surviving mice / infected mice (white mice; hypoderm., 5 mg/kg): 6/6
surviving mice / infected mice (white mice; hypoderm., 10 mg/kg): 6/6
surviving mice / infected mice (white mice; hypoderm., 20 mg/kg): 6/6
surviving mice / infected mice (white mice; hypoderm., 35 mg/kg): 6/6
surviving mice / infected mice (white mice; hypoderm., 50 mg/kg): 6/6
surviving mice / infected mice (white mice; hypoderm., 75 mg/kg): 6/6
surviving mice / infected mice (white mice; in/abdom., 5 mg/kg): 6/6
surviving mice / infected mice (white mice; in/abdom., 10 mg/kg): 6/6
surviving mice / infected mice (white mice; in/abdom., 20 mg/kg): 6/6
surviving mice / infected mice (white mice; in/abdom., 35 mg/kg): 6/6
surviving mice / infected mice (white mice; in/abdom., 50 mg/kg): 6/6
surviving mice / infected mice (white mice; in/abdom., 75 mg/kg): 6/6
surviving mice / infected mice (white mice; in/cerebr., 5 mg/kg): 6/6
surviving mice / infected mice (white mice; in/cerebr., 10 mg/kg): 6/6
surviving mice / infected mice (white mice; in/cerebr., 20 mg/kg): 6/6
surviving mice / infected mice (white mice; in/cerebr., 35 mg/kg): 6/6
surviving mice / infected mice (white mice; in/cerebr., 50 mg/kg): 6/6
surviving mice / infected mice (white mice; in/cerebr., 75 mg/kg): 6/6
surviving mice / infected mice (white mice; in/nasal, 5 mg/kg): 6/6
surviving mice / infected mice (white mice; in/nasal, 10 mg/kg): 6/6
surviving mice / infected mice (white mice; in/nasal, 20 mg/kg): 6/6
surviving mice / infected mice (white mice; in/nasal, 35 mg/kg): 6/6
surviving mice / infected mice (white mice; in/nasal, 50 mg/kg): 6/6
surviving mice / infected mice (white mice; in/nasal, 75 mg/kg): 6/6
toxicity (white mice; all injection methods, 5 to 50 mg/kg, except intracerebral 10 to 50 mg/kg): non-toxic
normal cells killed (normal cells; optimal dose): about 30%
CC50 (normal cells; read-out: LD50 for cells, cells): ≤ 100 mM
death of animals (mice): 50%
